Here are results for two compounds from paper PMC9456491, “Targeting the Mitochondrial Protein VDAC1 as a Potential Therapeutic Strategy in ALS” (International Journal of Molecular Sciences, 2022).

Series [1] deals with VDAC1. On the set-up: method as in PMID 27738100, PMID 30293774, PMID 31857488, PMID 34217890. The following applies: ref [49], [43], [44], [45]; cited from earlier work.
The test system of series [2] is VDAC1. Kind of series: VDAC1 oligomerization in spinal cord mitochondria (EGS crosslinking). Conditions: spinal cord mitochondria 1 mg/mL from SOD1^G93A mice, VBIT-4 20 μM, 10 min pre-incubation, PBS pH 8.3, 20 min, 30 °C, immunoblot, dimer quantification, n = 3. The series is classed as biochemical. The procedure:
(§1) Figure 3 VDAC1 oligomerization is increased in mutant SOD1^G93A spinal cord mitochondria. […] A cell viability analysis was performed using the CellTiter 96 AQueous One-Solution cell proliferation assay using a plate reader at 490 nm. (B,C) Spinal cord mitochondria (1 mg/mL) from non-transgenic, SOD1^WT or SOD1^G93A rats were incubated for 10 min at 30 °C in 10 mM Tricine, pH 8.2, with the indicated concentration of the crosslinking reagent EGS (B) or DSP (C). Sample buffer for electrophoresis containing 2-mercaptoethanol, except for DSP (S-S-containing reagent), was added, and the samples were subjected to SDS/PAGE (10% gel) and immunoblot analysis using anti-VDAC1 antibodies. (D,E) Spinal cord mitochondria (1 mg/mL, n = 3) from non-transgenic or SOD1^G93A mice were incubated for 20 min at 30 °C in PBS, pH 8.3, with the indicated concentration of EGS, and subjected to SDS-PAGE (10%), immunoblotting (D), and quantitative analysis (E). (F,G) Spinal cord mitochondria isolated from SOD1^G93A mice were pre-incubated with VBIT-4 (10 min, 20 μM) and subjected to cross linking as described in D. Samples were subjected to SDS/PAGE 4–15% gradient gel and immunoblotting using anti-VDAC1 antibodies (F) and to dimer quantitative analysis (G). VDAC1 dimer levels were quantified using ImageJ software. The positions of VDAC1 monomers, dimers, trimers, tetramers, and higher oligomers are indicated. […]
(In western blotting, separated proteins are transferred to a membrane and probed.)

Another series concerns VDAC1 oligomerization. Conditions: ref [49]; cited from earlier work.
The subject of a further series is mice. The following applies: mouse, in vivo; cited from earlier work. An excerpt: Mutant SOD1^G93A female mice were divided into three groups (10 mice per group): a control group (DMSO), VBIT-4-, and VBIT-12-treated groups.
The subject of series [3] is release of mitochondrial DNA (mtDNA); cGAS/STING. On the set-up: method as in PMID 34217890. The following applies: ref [45]; cited from earlier work.
The test system of series [4] is mutant SOD1^G93A transgenic mice. Nature of the series: SOD1^G93A mouse ALS model, drinking water treatment. The class given is in vivo. Conditions: SOD1^G93A female mice, drinking water 0.0625 mg/mL, about 20 mg/kg daily; n = 10; vs DMSO. The method, then:
(§2) Mutant SOD1^G93A transgenic mice (B6SJL-TgN-SOD1-G93A-1Gur) were obtained from The Jackson Laboratory (Bar Harbor, ME, USA) for the experiments. All experiments were approved by the Animal Care and Use Committee of Ben-Gurion University of the Negev, as required by Israeli legislation, and all efforts were taken to minimize animal suffering.
VBIT-4 and VBIT-12 were dissolved in DMSO (80 mg/mL) and then diluted in drinking water while being added in a dropwise manner into the acidic water to a final concentration of 0.0625 mg/mL. Considering an estimated daily water consumption of a 25 g mouse as 6–8 mL per mouse, the daily dose of VBIT-4 and VBIT-12 was determined. Assuming a mouse drinks about 8 mL of water daily, it consumed 20 mg/kg of the compound. Control untreated WT mice received water containing DMSO (0.36%) at the final concentration as in VBIT-4 or VBIT-12 drinking solutions. Mutant SOD1^G93A female mice were randomly divided to receive drinking water containing VBIT-4, VBIT-12, or DMSO for the control. Water consumption was verified daily.
Mean age of disease onset, defined as the time when mice reached peak body weight (A, B), and disease end stage, defined as the time when the mouse could not right itself within 20 s when placed on its side (C, D) of mutant SOD1G93A mice without (control, n = 10, blue) and with treatment of VBIT‐4 (n = 10, red) or VBIT‐12 (n = 10, green) through drinking water. The results are the means ± SD. (E–G) Mean (± SD) duration of early disease (from onset to 10% weight loss) (E), duration of late disease (from 10% weight loss to end stage) (F), and disease progression (from onset to end stage) (G). At each time point, the p‐ value was determined by a Student’s t‐test. Error bars denote SDs. Plot of averaged forelimb (H) and hindlimb (I) grip strength for SOD1G93A female mice untreated (n = 10, blue), treated with VBIT‐4 (n = 10, red), or treated with VBIT‐12 (n = 10, green) through the drinking water. SOD1G93A mice were monitored up to the end stage. The untreated SOD1G93A mice received water with the same concentration of DMSO as controls. At each time point, the p‐value was determined by a Student’s t‐test. Error bars denote SDs.
Table S1. Antibodies used in the study

For series [5], the system named is iPSC-derived motor neurons from ALS patients carrying mutations in TDP-43. The arrangement: method as in PMID 33031745. The following applies: TDP-43 mutations, ref [58]; cited from earlier work.
The test system of series [6] is mutant SOD1^G93A transgenic mice. Kind of series: SOD1^G93A mouse ALS model, IP treatment. The series is classed as in vivo. The method, then: Mean age of disease onset, defined as the time when mice reached peak body weight as a function of time (A,B), and disease end stage, defined as the time when the mouse could not right itself within 20 s when placed on its side (C,D) considering mutant SOD1^G93A mice IP-injected every second day with 200 µL DMSO 4% (control, n = 10, blue) or with VBIT-12 (26 mg/kg) (n = 10, green). The results are the means ± SD. (E–G) The means ± SD for the duration of early disease (from onset to 10% weight loss) (E), duration of late disease (from 10% weight loss to end stage) (F), and disease progression (from onset to end stage) (G) are presented. Plots of the averaged forelimb (H) and hindlimb (I) grip strength for SOD1^G93A female mice untreated (n = 10, blue) or treated with VBIT-12 (n = 10, green). SOD1^G93A mice were monitored up to the end stage. At each time point, the p-value was determined by Student’s t-test with SD. * p < 0.05; ns, non-significant.
as §2
For intraperitoneal (IP) injection, VBIT-12 (80 mg/mL) in DMSO was diluted with saline, pH 7.0, to a final concentration of 3.25 mg/mL. Mice received 200 µL by IP injection resulting in a final VBIT-12 concentration of ~26 mg/Kg. VBIT-12 was IP injected every second day starting from day 60 for 12 weeks, and then the VBIT-12 final concentration was reduced to ~13 mg/Kg. The control group was IP injected with around 200 µL of DMSO (4%).

For series [7], the system named is motor-neuron-like NSC-34 cells expressing human SOD1^G93A. Nature of the series: Viability of NSC-34 cells expressing mutant SOD1^G93A. The series is classed as cell-based. The following applies: NSC-34, human SOD1^G93A; VBIT-12 15 µM, 12 h, 24 h post-transfection; 490 nm; n = 3, means ± SEM. The method, then:
as §1

The mark [8] stands for this setting: SOD1^G93A female mice, IP 26 mg/kg every other day from day 60, then ~13 mg/Kg, n = 10, during disease progression, Student's t-test.
Where [9] appears, read: SOD1^G93A mice, IP 26 mg/kg every other day from day 60 for 12 weeks, then ~13 mg/Kg, n = 10, vs DMSO 4%.

As to `O=C(CC(CO)N1CCN(c2ccc(OC(F)(F)F)cc2)CC1)Nc1ccc(Cl)cc1` (stereo not drawn) [VBIT-4], in the series on VDAC1 [1], the “inhibition of VDAC1 conductance” value is recorded as “inhibit VDAC1 conductance”. Further, in the series with VDAC1 [2], the “inhibition of VDAC1 oligomerization” value was “inhibited the oligomerization of VDAC1”. For the same compound, in the series with VDAC1 oligomerization, the “effect on cells under physiological conditions” value is “no effect on cells under physiological conditions”; the “prevention of VDAC1 oligomerization and apoptotic cell death” value was “prevent both VDAC1 oligomerization and apoptotic cell death”; the “prevention of cytosolic Ca^2+ elevation and ROS production” value was “prevent VDAC1 oligomerization, and, thereby, apoptosis and apoptosis-associated processes such as cytosolic Ca^2+ elevation and ROS production”. The tolerability entry in the series on mice is listed as “well tolerated in mice”. Moreover, the “inhibition of mtDNA release and inflammation” value in series [3] was “inhibit the release of mitochondrial DNA (mtDNA) via preventing VDAC1 oligomerization and inhibiting inflammation”. Besides, in series [4], the “disease onset (peak body weight)” value is reported as “no effect on disease onset” and the “survival (disease end stage)” value is “no effect on disease onset (Figure S3A,B) or survival”. Besides, the “prevention of cytosolic accumulation of mtDNA and inflammation” value in [5] is “prevented the cytosolic accumulation of mtDNA and inflammation”.

As for `O=C(O)CNC(=O)C1(Nc2ccccc2)CCN(Cc2cccc3ccccc23)CC1` [VBIT-12], the “inhibition of VDAC1 conductance” value with VDAC1 [1] was “inhibit VDAC1 conductance”. Moreover, in [6] (setting [8]), the “forelimb grip (pulling) strength” value is “significantly greater pulling strength” and the “hindlimb grip (pulling) strength” value was “significantly greater pulling strength”. Further, in series [6] (SOD1^G93A mice, IP 26 mg/kg every other day from day 60, then ~13 mg/Kg, n = 10, vs DMSO 4%), the “maintenance of limb muscle strength over time” value is reported as “maintained their limb muscle strength for a significantly more extended period of time”. Besides, in series [6] (setting [9]), the disease onset result was “positive tendency in delaying disease onset (Figure 5A,B) and survival of SOD1^G93A mice, although this was not statistically significant”; the survival entry is “positive tendency in delaying disease onset (Figure 5A,B) and survival of SOD1^G93A mice, although this was not statistically significant”. For the same compound, the “muscle function and survival (summary)” value in series [6] (SOD1^G93A transgenic mice, "daily treatment" as worded in the discussion) is listed as “significantly improved muscle function, without extending survival”. The “prevention of mutant SOD1 cell toxicity (cell survival)” value in series [7] is “partially prevented the mutant SOD1 cell toxicity effect”. For the same compound, in the series with VDAC1 oligomerization, the “effect on cells under physiological conditions” value was “no effect on cells under physiological conditions”; the “prevention of VDAC1 oligomerization and apoptotic cell death” value is “prevent both VDAC1 oligomerization and apoptotic cell death”; the “prevention of cytosolic Ca^2+ elevation and ROS production” value was “prevent VDAC1 oligomerization, and, thereby, apoptosis and apoptosis-associated processes such as cytosolic Ca^2+ elevation and ROS production”. For the same compound, in series [4], the “disease onset (peak body weight)” value is recorded as “no effect on disease onset”; the “muscle endurance, hindlimb grip strength” value was “some benefit on muscle endurance as measured by grip strength in the hindlimbs”; the “survival (disease end stage)” value was “no effect on disease onset (Figure S3A,B) or survival”.
